The conditions of data set [1]: in vitro and in vivo; ref Amoscato et al., 1983; Fridkin and Najjar, 1989; Siemion and Kluczyk, 1999; cited from earlier work. The source says: Along with ACE2, neuropilin 1 (NRP1) is another important host factor for SARS-CoV-2 infection ([Daly et al., 2020]). It has been reported that NRP1 facilitates the entry of SARS-CoV-2 into cells in the presence of ACE2 ([Cantuti-Castelvetri et al., 2020]). […] Tuftsin, a natural phagocytosis-stimulating peptide, was found by [Najjar and Nishioka (1970)]. Tuftsin is released from the Fc fragment of IgG by enzyme cleavage of an endocarboxy-peptidase in the spleen and a leukokin ...

Data set [2] deals with recombinant human NRP1 (Homo sapiens, UniProt O14786). The experiment in a line: SPR binding to immobilized NRP1. The note with it: SPR Biacore T200, CM5 chip, amine coupling, 25°C, 30 µl/min, 1×PBS, 0.05% Tween 20, 5% dimethyl sulfoxide, pH 7.4; steady state affinity model; read-out: K D value. As for the experimental part:
(§1) Each target was immobilized onto flow cells in a CM5 sensor chip (GE Healthcare) via the amine-coupling method. Briefly, ACE2 and NRP1 were diluted in 10 mM pH 4.5 acetate to 20 μg/ml. Then, the protein solutions were injected individually on the carboxyl-modified sensor surface to form amine bonds. Both ACE2 and NRP1 immobilized levels were approximately 10,000 RU. Binding analyses were carried out at 25°C and a flow rate of 30 µl/min. Tuftsin diluted in running buffer (1×PBS, 0.05% Tween 20 and 5% dimethyl sulfoxide, pH 7.4) was run over each target at gradient concentrations. An empty flow cell without any immobilized protein was used as a deducted reference. The binding curves were analysed using the steady state affinity model supplied with Biacore Evaluation Software (GE Healthcare).
(§2) The interactions of tuftsin with ACE2 and NRP1 were further evaluated by real-time biomolecular interaction analysis with SPR. The steady state affinity of the binding reaction were determined by injecting different concentrations of tuftsin over recombinant human ACE2 immobilized on one half of the chip surface, and over recombinant human NRP1 immobilized on another half of the chip surface. […] The K D fitting curve of tuftsin with NRP1 is gradually stable when the concentrations of tuftsin increased gradually, conforming to the characteristic of specific binding (Figure 3B).

For data set [3], the target named is T1, recombinant human ACE2 (Homo sapiens, UniProt Q9BYF1).
T1 construct: purchased Novoprotein, Beijing, China
Briefly: SPR binding to immobilized ACE2. The settings on record: SPR Biacore T200, CM5 chip, amine coupling, 25°C, 30 µl/min, 1×PBS, 0.05% Tween 20, 5% dimethyl sulfoxide, pH 7.4; steady state affinity model; read-out: equilibrium dissociation constant (K D). As for the experimental part: as §1, §2

Peptide text beside a SMILES is read from it.

Chain of recombinant human NRP1 (O14786 22-923): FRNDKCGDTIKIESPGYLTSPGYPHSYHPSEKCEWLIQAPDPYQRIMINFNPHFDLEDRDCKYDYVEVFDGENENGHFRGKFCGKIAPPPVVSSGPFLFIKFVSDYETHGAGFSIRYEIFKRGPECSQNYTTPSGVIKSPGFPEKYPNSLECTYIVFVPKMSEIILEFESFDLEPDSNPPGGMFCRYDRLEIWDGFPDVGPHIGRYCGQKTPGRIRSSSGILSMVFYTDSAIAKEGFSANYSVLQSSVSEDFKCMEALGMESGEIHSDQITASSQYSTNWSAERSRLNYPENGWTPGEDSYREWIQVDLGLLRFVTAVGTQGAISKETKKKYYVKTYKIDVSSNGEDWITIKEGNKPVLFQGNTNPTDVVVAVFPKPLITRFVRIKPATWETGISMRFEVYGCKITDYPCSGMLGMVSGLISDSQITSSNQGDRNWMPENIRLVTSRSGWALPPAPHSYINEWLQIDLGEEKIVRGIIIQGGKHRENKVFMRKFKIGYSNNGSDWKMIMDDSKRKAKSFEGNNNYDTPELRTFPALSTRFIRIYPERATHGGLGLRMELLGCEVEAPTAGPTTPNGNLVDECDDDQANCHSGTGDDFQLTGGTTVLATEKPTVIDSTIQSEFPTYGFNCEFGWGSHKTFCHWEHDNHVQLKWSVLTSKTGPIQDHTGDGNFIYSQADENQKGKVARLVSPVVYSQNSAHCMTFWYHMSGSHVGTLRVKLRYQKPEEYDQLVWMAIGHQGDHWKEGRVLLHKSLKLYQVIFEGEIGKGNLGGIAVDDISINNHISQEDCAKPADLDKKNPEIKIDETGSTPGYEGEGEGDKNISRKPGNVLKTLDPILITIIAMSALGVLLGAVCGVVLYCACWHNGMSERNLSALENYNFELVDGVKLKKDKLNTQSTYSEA
T1 sequence (Q9BYF1 18-805): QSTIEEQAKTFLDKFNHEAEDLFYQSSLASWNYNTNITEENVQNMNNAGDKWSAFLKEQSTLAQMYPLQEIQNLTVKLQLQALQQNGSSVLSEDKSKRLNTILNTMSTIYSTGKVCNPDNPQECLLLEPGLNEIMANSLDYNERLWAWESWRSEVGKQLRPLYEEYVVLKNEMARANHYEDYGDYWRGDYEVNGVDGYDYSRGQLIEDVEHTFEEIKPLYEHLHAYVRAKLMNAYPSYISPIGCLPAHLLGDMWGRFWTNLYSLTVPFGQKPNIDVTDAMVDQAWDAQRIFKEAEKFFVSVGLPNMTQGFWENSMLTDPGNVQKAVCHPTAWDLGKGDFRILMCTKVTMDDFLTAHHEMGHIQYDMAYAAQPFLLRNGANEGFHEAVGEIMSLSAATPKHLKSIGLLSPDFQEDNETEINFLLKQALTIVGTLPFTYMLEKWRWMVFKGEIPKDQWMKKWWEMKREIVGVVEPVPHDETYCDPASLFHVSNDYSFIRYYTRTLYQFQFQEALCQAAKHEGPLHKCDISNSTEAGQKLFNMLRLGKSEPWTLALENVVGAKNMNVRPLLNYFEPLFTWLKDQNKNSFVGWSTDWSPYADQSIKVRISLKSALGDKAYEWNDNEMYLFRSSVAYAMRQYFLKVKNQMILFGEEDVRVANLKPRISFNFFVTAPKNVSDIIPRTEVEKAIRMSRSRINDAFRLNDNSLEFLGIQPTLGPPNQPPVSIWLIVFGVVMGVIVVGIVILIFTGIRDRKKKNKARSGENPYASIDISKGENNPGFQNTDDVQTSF

On to `C[C@@H](O)[C@H](N)C(=O)N[C@@H](CCCCN)C(=O)N1CCC[C@H]1C(=O)N[C@@H](CCCNC(=N)N)C(=O)O` [tuftsin, L-Threonyl-L-Lysyl-L-Prolyl-L-Arginine] (H-TKPR-OH), for which the toxicity entry in data set [1] is recorded as “low toxicity”. In addition, the results for the Kd in data set [2] and in data set [3] were 10.7 µM and 460 µM, respectively.

(Values after PMC8984176, “Tuftsin: A Natural Molecule Against SARS-CoV-2 Infection” (Frontiers in Molecular Biosciences, 2022).)
